Consider one substance from US10398727B2, “Methods for the treatment and prevention of asbestos-related diseases” (University of Technology, Sydney, priority 2014, dated 2019).

This series concerns crocidolite-induced mesothelioma in MexTAg299 transgenic mice. In words: Effect of CM on asbestos-induced mesothelioma in MexTAg299 mice (Example 2). As to conditions: mouse, in vivo. How it is done:
MexTAg299 transgenic mice are suitable for testing asbestos-induced mesothelioma with 100% incidence. MexTAg mice exposed to asbestos develop cancer that faithfully replicates key features of the pathogenesis of human mesothelioma.
Controls were normal saline (0.9%) or CM at 90 mg/kg (3 mice each).

With clinoptilolite [CM], the “Mesothelioma (number of mice)” value worked out at 0.
